Experimental data published in patent US20070142431A1, “Quinoline 4-carboxamide derivatives and their use as neurokinin 3 (nk-3) receptor antagonists” (SmithKline Beecham Corporation, priority 2003, published 2007).

Legend:
NK3 receptor = target: T1, NK3 receptor (Homo sapiens, UniProt P29371); experiment: NK binding affinity, scintillation proximity assay (SPA), 125I [MePhe7]-NKB; conditions: plasma membrane from CHO cell lines expressing NK3, read-out: NK3 pKi (converted)
T1 construct: expressed in transfected cells; host or cells: CHO cell line, plasma membrane preparation
T1 sequence (P29371 1-465): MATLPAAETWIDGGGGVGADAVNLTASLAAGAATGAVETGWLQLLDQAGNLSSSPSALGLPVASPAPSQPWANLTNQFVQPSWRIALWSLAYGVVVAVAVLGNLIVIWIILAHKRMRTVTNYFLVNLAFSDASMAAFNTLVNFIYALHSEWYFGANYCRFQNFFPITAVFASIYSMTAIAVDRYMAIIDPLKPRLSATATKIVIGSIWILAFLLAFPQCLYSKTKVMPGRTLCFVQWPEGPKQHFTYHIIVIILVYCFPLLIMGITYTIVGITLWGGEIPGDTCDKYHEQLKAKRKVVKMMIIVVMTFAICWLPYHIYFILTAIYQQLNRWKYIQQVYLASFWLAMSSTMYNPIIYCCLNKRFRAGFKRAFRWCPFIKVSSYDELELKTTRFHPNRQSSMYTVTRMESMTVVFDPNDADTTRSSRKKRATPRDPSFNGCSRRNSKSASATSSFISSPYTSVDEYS
Protocol: (§1) The NK binding affinity of the compounds of the invention was determined using the following scintillation proximity assay (SPA) (see H. M. Sarau et al, J. Pharmacol. Experimental Therapeutics 1997, 281(3), 1303-1311; H. M. Sarau et al, J. Pharmacol. Experimental Therapeutics 2000, 295(1), 373-381; G. A. M. Giardina et al J.Med.Chem 1999, 42, 1053-1065). ^125I Substance P, ^125I NKA and ^125I [MePhe7]-NKB were used in the binding SPA of NK1, NK2 and NK3 receptor, respectively. Polystrene Leadseeker WGA-SPA beads (Amersham Biosciences) were mixed with plasma membrane prepared from CHO cell lines expressing NK1, NK2 or NK3 in a bead/membrane ratio of 20:1 (w/w) in assay buffer (75 mM Tris pH 7.8, 75 mM NaCl, 4 mM MnCl2, 1 mM EDTA, 0.05% Chaps, 1 mM PMSF). The mixture was placed on ice for 30 minutes to allow the formation of membrane/bead complex before BSA was added to a final concentration of 1%. After another 30 minutes incubation on ice, the bead/membrane complex was washed twice and suspended in assay buffer. ^125I-labelled ligands were then added to the bead/membrane complex. 30 μl of the resulting mixture was then dispensed into each well of a Nalgen NUNC 384-well plate with 1 μl compound pre-dispensed in 50% DMSO. The plates were then sealed and pulse spun at 1100 rpm. After 3 hours incubation at room temperature with shaking, the plates were spun for 2 min at 1100 rpm and measured in Viewlux imager (PerkinElmer) for 5 minutes with a 618-nm filter. Inhibition of radioactive ligand binding to its respective receptor was measured by the reduction of signal. pKi was calculated using Kd of each radioactive ligand determined in a separate experiment.

NK2 receptor = target: T2, NK2 receptor (Homo sapiens, UniProt P21452); experiment: NK binding affinity, scintillation proximity assay (SPA), 125I NKA; conditions: plasma membrane from CHO cell lines expressing NK2, read-out: NK2 pKi (converted)
T2 construct: expressed in transfected cells; host or cells: CHO cell line, plasma membrane preparation
T2 sequence (P21452 1-398): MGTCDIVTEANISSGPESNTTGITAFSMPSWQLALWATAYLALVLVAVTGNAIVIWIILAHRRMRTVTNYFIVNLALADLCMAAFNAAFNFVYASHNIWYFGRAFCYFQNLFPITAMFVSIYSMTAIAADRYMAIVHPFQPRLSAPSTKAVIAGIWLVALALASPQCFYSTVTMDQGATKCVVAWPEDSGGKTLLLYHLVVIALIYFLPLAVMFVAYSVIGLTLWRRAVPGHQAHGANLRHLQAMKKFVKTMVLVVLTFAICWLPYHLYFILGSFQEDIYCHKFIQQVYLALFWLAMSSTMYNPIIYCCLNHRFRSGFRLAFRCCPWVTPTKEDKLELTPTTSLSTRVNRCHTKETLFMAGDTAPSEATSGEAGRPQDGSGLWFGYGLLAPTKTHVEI
Protocol: as §1

[1] = Measurement of brain exposure; format: in vivo; conditions: rats, orally dosed 3 mg/kg as 1% methylcellulose suspension; brain homogenate concentration vs time over 12 hr
Protocol: Compounds of the invention were orally dosed (3 mg/kg) to rats as 1% methylcellulose (w/v) suspensions. The rats were sacrificed after set time intervals and the concentration of the compound of the invention in brain homogenate was determined by protein precipitation followed by LC-MS-MS analysis of the extracts against standards prepared in brain homogenate. A graph of brain concentration against time was plotted over a 12 hr period. The area under the curve (AUC, units=hours.ng/g brain) was taken as a measure of brain exposure.

NK1 receptor = target: T3, NK1 receptor (Homo sapiens, UniProt P25103); experiment: NK binding affinity, scintillation proximity assay (SPA), 125I Substance P; conditions: plasma membrane from CHO cell lines expressing NK1, read-out: NK1 pKi (converted)
T3 construct: expressed in transfected cells; host or cells: CHO cell line, plasma membrane preparation
T3 sequence (P25103 whole entry): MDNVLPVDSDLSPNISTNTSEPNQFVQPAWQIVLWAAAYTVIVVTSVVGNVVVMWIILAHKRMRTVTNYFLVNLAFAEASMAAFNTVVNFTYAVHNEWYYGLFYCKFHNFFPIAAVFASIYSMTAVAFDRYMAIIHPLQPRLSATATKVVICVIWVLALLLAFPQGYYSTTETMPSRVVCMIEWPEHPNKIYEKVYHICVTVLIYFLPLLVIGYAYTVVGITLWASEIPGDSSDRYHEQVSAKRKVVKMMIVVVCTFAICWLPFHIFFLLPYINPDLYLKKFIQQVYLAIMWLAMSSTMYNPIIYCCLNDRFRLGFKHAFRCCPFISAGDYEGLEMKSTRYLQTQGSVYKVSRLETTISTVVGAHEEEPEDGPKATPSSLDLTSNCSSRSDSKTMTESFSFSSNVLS
Protocol: as §1

Row | Ki (NK3 receptor) [nM] | Ki (NK2 receptor) [nM] | Brain Exposure (AUC, h · ng/g brain) [1] [h · ng/g brain] | Ki (NK1 receptor) [nM] | SMILES
1 | 10 | 316 | 1896 | 1000 | O=C(N[C@H](c1ccccc1)C1CC1)c1c(Cn2nccn2)c(-c2cccc(F)c2)nc2ccccc12 [Example 1, 2-(3-Fluoro-phenyl)-3-[1,2,3]triazol-2-ylmethyl-quinoline4-carboxylic acid ((S)-1-cyclopropyl-1-phenyl-methyl)-amide]
2 | 3.98 | 251 | 2361 | 1260 | O=C(N[C@H](c1cccc(F)c1)C1CC1)c1c(Cn2ncnn2)c(-c2ccccc2)nc2ccccc12 [Example 35, 2-Phenyl-3-tetrazol-2-ylmethyl-quinoline-4-carboxylic acid [(S)-1-cyclopropyl-1-(3-fluoro-phenyl)-methyl]-amide]
3 | 10 | 251 | 1900 | 1260 | O=C(N[C@H](c1ccccc1)C1CC1)c1c(Cn2ncnn2)c(-c2cccc(F)c2)nc2ccccc12 [Example 45, 2-(3-Fluoro-phenyl)-3-tetrazol-2-ylmethyl-quinoline-4-carboxylic acid ((S)-1-cyclopropyl-1-phenyl-methyl)-amide]
4 | 2.51 | 158 | 2091 | 631 | O=C(N[C@H](c1cccc(F)c1)C1CC1)c1c(Cn2nccn2)c(-c2ccccc2)nc2ccccc12 [Example 37, 2-Phenyl-3-[1,2,3]triazol-2-ylmethyl-quinoline-4-carboxylic acid [(S)-1-cyclopropyl-1-(3-fluoro-phenyl)-methyl]-amide]
